Measurements reported in patent US6608082B1, “Treatment of erectile dysfunction using isoquinoline compound melanocortin receptor ligands” (Lion Bioscience AG, priority 1998, dated 2003).
Where two headings read alike, the source gives them in different places.

What was measured:
MCR-1 = biological target: T1, MCR-1 (Homo sapiens, UniProt Q01726); assay: Melanocortin receptor binding assay, competition with 125I-HP 467, HEK 293 cells expressing hMCR-1; settings: inhibition of binding of 125I-HP 467, HEK 293 cells expressing MCR-1; for IC50: read-out: MC-1 IC50
T1 construct: expressed in transfected cells; host or cells: HEK 293
Procedure, shortened: (§1)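 Intact-cell competition binding, 2.5 hr at 37 °C, in PBS/10% calf serum/1 mM CaCl2; hMCR-4 cells at 4×10^3 per tube, hMCR-1 cells at 2×10^4 per tube. Filtration on BSA/CaCl2-soaked GF/B, cold 50 mM Tris pH 7.4 washes, scintillation count.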

MCR-4 = biological target: T2, MCR-4 (Homo sapiens, UniProt P32245); assay: Melanocortin receptor binding assay, competition with 125I-HP 467, HEK 293 cells expressing hMCR-4; settings: inhibition of binding of 125I-HP 467, HEK 293 cells expressing MCR-4, read-out: MC-4 IC50
T2 construct: expressed in transfected cells; host or cells: HEK 293
Procedure, shortened: as §1

T1 sequence (Q01726 whole entry): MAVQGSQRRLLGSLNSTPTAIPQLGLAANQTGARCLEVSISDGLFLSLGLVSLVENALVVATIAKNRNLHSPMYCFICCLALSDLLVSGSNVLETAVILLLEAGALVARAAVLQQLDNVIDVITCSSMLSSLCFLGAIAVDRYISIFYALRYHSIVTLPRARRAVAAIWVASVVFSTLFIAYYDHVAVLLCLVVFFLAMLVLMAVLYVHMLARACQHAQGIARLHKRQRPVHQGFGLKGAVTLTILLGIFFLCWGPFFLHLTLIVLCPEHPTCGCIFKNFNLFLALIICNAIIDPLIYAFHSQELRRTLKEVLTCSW
T2 sequence (P32245 whole entry): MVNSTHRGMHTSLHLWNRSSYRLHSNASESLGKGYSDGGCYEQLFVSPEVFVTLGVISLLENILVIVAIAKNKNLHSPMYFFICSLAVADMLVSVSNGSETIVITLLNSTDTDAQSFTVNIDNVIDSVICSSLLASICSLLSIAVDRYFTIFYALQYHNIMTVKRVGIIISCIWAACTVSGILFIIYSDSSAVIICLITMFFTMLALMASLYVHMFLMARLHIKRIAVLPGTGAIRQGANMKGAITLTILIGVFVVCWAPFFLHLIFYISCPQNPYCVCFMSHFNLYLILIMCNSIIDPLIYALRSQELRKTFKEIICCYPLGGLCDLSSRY

Row | SMILES | IC50 (MCR-1) | IC50 (MCR-4) | IC50 (MCR-1; TRG 2414 library) | IC50 (MCR-4; TRG 2414 library) | MC-1 IC50 (MCR-1; TRG 2414 library)
1 | CCCCCNc1ccc(C2C(CNCCc3ccccc3)c3ccccc3CN2CCCC(CN)NC)cc1 (stereo not shown) [TRG 2412-16] | 0.09 µM | 1.48 µM |  |  | 
2 | CCCCCNc1ccc(C2C(CNCCc3ccccc3)c3ccccc3CN2CCCC(CN)NCCc2ccccc2)cc1 (stereo not shown) [TRG 2412-17] | 0.27 µM | 1.15 µM |  |  | 
3 | CCOc1ccc(C2C(CNCCc3ccccc3)c3ccccc3CN2CCCC(CN)NCc2ccccc2)cc1 (stereo not shown) [TRG 2412-21] | 0.17 µM | 0.23 µM |  |  | 
4 | CCCCOc1ccc(C2C(CNCCc3ccccc3)c3ccccc3CN2CCCC(CN)NC)cc1 (stereo not shown) [TRG 2412-25] | 0.16 µM | 1.06 µM |  |  | 
5 | CCCCCc1ccc(C2C(CNCCc3ccccc3)c3ccccc3CN2CCCC(CN)NCc2ccccc2)cc1 (stereo not shown) [TRG 2412-30] | 0.62 µM | 1.06 µM |  |  | 
6 | CCNc1ccc(C2C(CNCCc3ccccc3)c3ccccc3CN2CCCC(CN)NCCc2ccccc2)cc1 (stereo not shown) [TRG 2413-9] | 0.26 µM | 1.34 µM |  |  | 
7 | CNC(CN)CCCN1Cc2ccccc2C(CNCCc2ccccc2)C1c1ccc([N+](=O)[O-])cc1 (stereo not shown) [TRG 2413-16] | 1.27 µM | 0.4 µM |  |  | 
8 | COc1ccccc1CCNCC1c2ccccc2CN(CCCCC(CN)NCCc2ccccc2)C1c1ccc(Cl)cc1Cl (stereo not shown) [TRG 2414-10] |  |  | 2.93 µM | 4.88 µM | 
9 | COc1ccccc1CCNCC1c2ccccc2CN(CCCCC(CN)NCC(C)c2ccc(CC(C)C)cc2)C1c1ccc(Cl)cc1Cl (stereo not shown) [TRG 2414-12] |  |  | 11.7 µM | 34.5 µM | 
10 | NCC(N)CCCCN1Cc2ccccc2C(CNCCc2cccc(Cl)c2)C1c1ccc(Cl)cc1Cl (stereo not shown) [TRG 2414-13] |  |  | 2.19 µM | 1.18 µM | 
11 | NCC(CCCCN1Cc2ccccc2C(CNCCc2cccc(Cl)c2)C1c1ccc(Cl)cc1Cl)NCCc1ccccc1 (stereo not shown) [TRG 2414-14] |  |  | 3.23 µM | 2.92 µM | 
12 | NC[C@H](CCCCN1Cc2ccccc2C(CNCCc2cccc(Cl)c2)C1c1ccc(Cl)cc1Cl)NCc1ccccc1 (stereo partly shown) [TRG 2414-15] |  |  | 6.41 µM | 6.93 µM | 
13 | CC(C)Cc1ccc(C(C)CNC(CN)CCCCN2Cc3ccccc3C(CNCCc3cccc(Cl)c3)C2c2ccc(Cl)cc2Cl)cc1 (stereo not shown) [TRG 2414-16] |  |  |  | 33.4 µM | no fit
14 | COc1cccc(CNCC2c3ccccc3CN(CCCCC(N)CN)C2c2ccc(Cl)cc2Cl)c1 (stereo not shown) [TRG 2414-17] |  |  | 3.08 µM | 1.63 µM | 
15 | COc1cccc(CNCC2c3ccccc3CN(CCCCC(CN)NCCc3ccccc3)C2c2ccc(Cl)cc2Cl)c1 (stereo not shown) [TRG 2414-18] |  |  | 4.97 µM | 8.22 µM | 
16 | COc1cccc(CNCC2c3ccccc3CN(CCCCC(CN)NCc3ccccc3)C2c2ccc(Cl)cc2Cl)c1 (stereo not shown) [TRG 2414-19] |  |  | 3.27 µM | 7.31 µM | 
17 | COc1cccc(CNCC2c3ccccc3CN(CCCCC(CN)NCC(C)c3ccc(CC(C)C)cc3)C2c2ccc(Cl)cc2Cl)c1 (stereo not shown) [TRG 2414-20] |  |  | 27.4 µM | 38.1 µM | 
18 | COc1ccc(CNCC2c3ccccc3CN(CCCCC(N)CN)C2c2ccc(Cl)cc2Cl)cc1 (stereo not shown) [TRG 2414-21] |  |  | 1.12 µM | 1.57 µM | 
19 | COc1ccc(CNCC2c3ccccc3CN(CCCCC(CN)NCCc3ccccc3)C2c2ccc(Cl)cc2Cl)cc1 (stereo not shown) [TRG 2414-22] |  |  | 3.56 µM | 5.02 µM | 
20 | COc1ccc(CNCC2c3ccccc3CN(CCCCC(CN)NCc3ccccc3)C2c2ccc(Cl)cc2Cl)cc1 (stereo not shown) [TRG 2414-23] |  |  | 3.19 µM | 6.14 µM | 
21 | COc1ccc(CNCC2c3ccccc3CN(CCCCC(CN)NCC(C)c3ccc(CC(C)C)cc3)C2c2ccc(Cl)cc2Cl)cc1 (stereo not shown) [TRG 2414-24] |  |  | 25.5 µM | 37.5 µM | 
22 | COc1ccc(CCNCC2c3ccccc3CN(CCCC[C@H](N)CN)C2c2ccc(Cl)cc2Cl)cc1 (stereo partly shown) [TRG 2414-25] |  |  | 1.39 µM | 0.52 µM | 
23 | COc1ccc(CCNCC2c3ccccc3CN(CCCCC(CN)NCc3ccccc3)C2c2ccc(Cl)cc2Cl)cc1 (stereo not shown) [TRG 2414-27] |  |  | 2.65 µM | 2.6 µM | 
24 | COc1ccc(CCNCC2c3ccccc3CN(CCCCC(CN)NCC(C)c3ccc(CC(C)C)cc3)C2c2ccc(Cl)cc2Cl)cc1 (stereo not shown) [TRG 2414-28] |  |  | 13.9 µM | 7.42 µM | 
25 | NCC(N)CCCCN1Cc2ccccc2C(CNCc2ccccc2)C1c1ccc(Cl)cc1Cl (stereo not shown) [TRG 2414-29] |  |  | 5.66 µM | 4.4 µM | 
26 | NCC(CCCCN1Cc2ccccc2C(CNCc2ccccc2)C1c1ccc(Cl)cc1Cl)NCCc1ccccc1 (stereo not shown) [TRG 2414-30] |  |  | 5.39 µM | 6.21 µM | 
27 | NCC(CCCCN1Cc2ccccc2C(CNCc2ccccc2)C1c1ccc(Cl)cc1Cl)NCc1ccccc1 (stereo not shown) [TRG 2414-31] |  |  | 3.9 µM | 7.03 µM | 
28 | CC(C)Cc1ccc(C(C)CNC(CN)CCCCN2Cc3ccccc3C(CNCc3ccccc3)C2c2ccc(Cl)cc2Cl)cc1 (stereo not shown) [TRG 2414-32] |  |  | 28.3 µM | 32.1 µM | 
29 | NCC(CCCCN1Cc2ccccc2C(CNC2CCCCCC2)C1c1ccc(Cl)cc1Cl)NCCc1ccccc1 (stereo not shown) [TRG 2414-34] |  |  | 3.55 µM | 4.42 µM | 
